For `Cc1nc2scc(C)n2c(=O)c1CCN1CCC(C(=O)c2ccc(F)cc2)CC1`, the melting point was 200 °C.
`Cc1ccc(-c2nc3ccc(C)cn3c2C(O)C(=O)N(C)C)cc1` (stereo unspecified) showed a melting point of 175 to 177 °C.
For `Cc1nnc(NC(=O)C2=C(O)c3ccc4ccccc4c3S(=O)(=O)N2C)s1`, the melting point was 252 to 255 °C.
For `Cc1cc(C(F)(F)F)n2nc(S(=O)(=O)Nc3c(Cl)cccc3Cl)nc2n1`, the melting point was 237 to 239 °C.
In the case of `O=Cc1ccc2cccc3c4cccc5cccc(c1c23)c54`, the melting point is reported as 232 to 234 °C.
`O=c1[nH]c2ccc(S(=O)CCCl)cc2o1` (stereo unspecified) gave a melting point of 150 to 155 °C.
Work on `CC(c1ncnc(Cl)c1Cl)C(O)(Cn1cncn1)c1ccc(F)cc1F` (stereo unspecified) yielded a melting point of 124 °C.
Work on `CC(=O)N[C@H]1CCC(=O)N2CCC[C@@H](C(=O)OC(C)(C)C)N2C1=O` yielded a melting point of 162 to 163 °C.
Compound `c1ccc(-c2cccc(-c3nc4c5ccccc5ccn4n3)c2)cc1` has a melting point of 167 to 169 °C.
Work on `CC(C)=C(C(=O)O)c1ccc(Cl)cc1` yielded a melting point of 144 to 145 °C.
For `CCn1cc(C(=O)O)c(=O)c2cc(F)c(N3CCC(CNC4CC4)C3)nc21` (stereo unspecified), the melting point was 271 to 274 °C.
Work on `Cc1c(N2C[C@@H](N)C(C)(C)C2)c(F)c(N)c2c(=O)c(C(=O)O)cn(C3CC3)c12` yielded a melting point of 192 to 193 °C.
Compound `CCOC(=O)c1csc(Nc2ccccc2)n1` has a melting point of 140 to 142 °C.
In the case of `CCOC(=O)C(C)(C)CCCOc1ccc(OCCn2c(=O)sc3cc(C(=O)c4ccccc4)ccc32)cc1`, the melting point is reported as 82 to 84 °C.
With `CCc1nc(/C=C/c2cn(-c3ccccc3)nc2OCc2ccc(OCc3nc(-c4cccc(NS(C)(=O)=O)c4)oc3C)c(OC)c2)cs1` the melting point was 113 to 115 °C.
With `CN(C)c1ccc(-c2cc(-c3ccccc3)nc(-c3ccccc3)c2)cc1` the melting point was 128 to 129 °C.
With `Cc1nc(N2CCN(Cc3ccccc3)C2=N)sc1C(=O)NCc1ccc(F)cc1` the melting point was 142 to 144 °C.
Compound `Cc1ccc(C(=O)c2ccc(Cc3c(Cl)cc([N+](=O)[O-])cc3Cl)cc2)cn1` has a melting point of 121 to 123 °C.
In the case of `CCCc1cc2c(s1)[C@@H](O)[C@H]1C[C@]2(O)C(=O)O1`, the melting point is reported as 120 to 125 °C.
Work on `Cc1ccc(C(=O)c2ccc3[nH]cc(C4CCN(C)CC4)c3c2)cc1` yielded a melting point of 92 °C.
`Cc1c(Cl)c([N+](=O)[O-])cc([N+](=O)[O-])c1Cl` gave a melting point of 131 to 132 °C.
`OC1CCSC(=S)N1Cc1ccco1` (stereo unspecified) gave a melting point of 42 to 43 °C.
Compound `COc1ccccc1N1CCN([C@@H]2Cc3c(cccc3OC)C[C@H]2O)CC1` (relative stereo) has a melting point of 138 to 141 °C.
`O=C(C[C@@H](NC(=O)C(F)(F)F)C(=O)O)c1ccc(F)c(F)c1` gave a melting point of 136 to 137 °C.
`CC1(C)Oc2ccc([N+](=O)[O-])cc2C=C1CBr` gave a melting point of 107 °C.
In the case of `COc1ccc2c(c1)S(=O)(=O)C(C(=O)NCCCCCC(=O)O)C(=O)N2C` (stereo unspecified), the melting point is reported as 110 to 112 °C.
With `c1ccc(Sc2c[nH]c3ccccc23)cc1` the melting point was 149 to 151 °C.
`C=C1CCC(C(=O)OC)Cc2onc(-c3ccc(Cl)cc3)c21` (stereo unspecified) showed a melting point of 113 to 114 °C.
`CCCc1ccc(O)c(NC(=O)C(=O)OCC)c1` showed a melting point of 155 to 160 °C.
Compound `O=C(O)CNC(=Nc1ccc(C(=O)O)cc1)NCC1CCCCC1` has a melting point of 164 °C.
For `O=C1C(c2ccccc2)SCN1CCCCBr` (stereo unspecified), the melting point was 48 to 50 °C.
Compound `Cc1cc(Nc2ccccc2C(=O)O)n(-c2ccccn2)n1` has a melting point of 190 to 193 °C.
Work on `CCCCCCCNC(=O)Nc1ccc(-n2nc(C(F)(F)F)cc2C(F)(F)F)cc1` yielded a melting point of 129 to 130 °C.
For `NS(=O)(=O)c1cccc(-c2cc(-c3nc(-c4cccc(C(F)(F)F)c4)cc(C(F)(F)F)n3)ccn2)c1`, the melting point was 244 °C.
In the case of `CNc1cccc(NC(=O)CO)c1C#N`, the melting point is reported as 160 to 162 °C.
With `CCOc1nc2cc(OC)cc(C)c2c(=O)o1` the melting point was 138 to 140 °C.
With `N#Cc1c(F)ccc(OCc2nc3cc(Cl)ccc3s2)c1F` the melting point was 145 to 147 °C.
With `O=C(Oc1ccccc1)C1=C(O)CCn2c1nc1ccccc12` the melting point was 176 to 178 °C.
Work on `CC12CCC(O)CC1CCC1C2CCC2(C)C(C(=O)COc3cccnc3)CCC12` (stereo unspecified) yielded a melting point of 63 to 66 °C.
For `C=C=COc1ccc(-c2ccc(OC=C=C)cc2)cc1`, the melting point was 135 to 138 °C.
`COc1cc(O)c2c(=O)c(OC)c(-c3ccc(OCc4ccccc4)c(OC)c3)oc2c1` gave a melting point of 156 to 157 °C.
For `C(=C\c1ccc2c(c1)COC(N[C@@H]1CCc3ccccc31)=N2)/c1ccccc1`, the melting point was 162 °C.
In the case of `COC(=O)COc1ccc(NC(=O)CCCCCOCc2ccccc2)cc1`, the melting point is reported as 64.6 to 67 °C.
`CCOC(=O)c1cn(C2CC2)c2c(F)c(C)c(F)cc2c1=O` showed a melting point of 177 to 179 °C.
In the case of `CC(=O)OC1CSC(Oc2cccnc2C(C)=O)C(OC(C)=O)C1OC(C)=O` (stereo unspecified), the melting point is reported as 168 °C.
Work on `CCCCn1c(=O)c2c(NC)n[nH]c2n(Cc2ccc([N+](=O)[O-])cc2)c1=O` yielded a melting point of 277 to 279 °C.
With `Cc1ccccc1-n1nccc1-c1nn(-c2cccc(C(F)(F)F)c2)ccc1=O` the melting point was 126 to 127 °C.
In the case of `O=C(O)C(=O)C(=O)Nc1cccc([N+](=O)[O-])c1`, the melting point is reported as 110 °C.
With `Cc1c(F)c(F)c(CNc2ccc(O)c(C(=O)O)c2)c(F)c1F` the melting point was 212 °C.
With `CCOC(=O)COc1ccc2cc(-c3oc4ccccc4c3CCC3CCCC3)ccc2c1Br` the melting point was 115 to 120 °C.
With `CCCOc1ccccc1-c1nc2nc(NCCCS(C)(=O)=O)ncc2c(=O)[nH]1` the melting point was 222 to 223 °C.
Work on `CCCNC(=O)c1ccc(-c2nc(=O)c3ccccc3s2)nc1` yielded a melting point of 268 to 269 °C.
With `CCCCOc1cc(OC)ccc1C(=O)c1cccc(C(=O)O)c1` the melting point was 112 to 115 °C.
`O=C1c2cccc3cccc(c23)C(O)N1CCN1CCC(Cc2ccccc2)CC1` (stereo unspecified) gave a melting point of 153 to 155 °C.
In the case of `CCCCCCOc1nccc(C(N)=O)c1Cl`, the melting point is reported as 75 to 77 °C.
`OCc1ccc(-c2cccc(-c3cn([C@H]4CN5CCC4CC5)nn3)c2)cc1` showed a melting point of 214 °C.
Work on `OCc1cncn1Cc1ccccc1` yielded a melting point of 131 to 135 °C.
For `Cc1nn(C)c(=O)c(-n2nc(-c3ccc(C(F)(F)F)cc3)cc2C)c1O`, the melting point was 191 to 194 °C.
`CC(C)(O)C1CCC(CNC(=O)c2cccnc2Oc2cccc(C#N)c2)CC1` (stereo unspecified) gave a melting point of 129 to 130 °C.
Compound `N#Cc1ccc(CN2CC=C(c3nc4ccccc4s3)CC2)cc1` has a melting point of 165 to 166 °C.
`CS(=O)Cc1cc(=O)c2ccccc2o1` (stereo unspecified) showed a melting point of 142 to 146 °C.
`CCOC(=O)C1=C(C)NC(C)=C(C(=O)OCC)C1c1cc2cnccc2s1` showed a melting point of 204 to 205 °C.
Work on `CC(=O)NC1C(O)OC(COC(C)=O)C(O)(C(C)=O)C1OC(C)C(=O)O` (stereo unspecified) yielded a melting point of 85.8 to 90.8 °C.
Work on `OCC(O)COCCCCCCCCOc1ccc(-c2ccccc2)cc1` (stereo unspecified) yielded a melting point of 94 to 96 °C.
Work on `Cc1cnc(-c2ccc(C(F)(F)F)cc2)n1C` yielded a melting point of 130 °C.
In the case of `CN1C(=O)NC(=O)C(C=O)C1=O` (stereo unspecified), the melting point is reported as 197 to 199 °C.
Compound `COCO[C@H]1C(=O)Nc2ccccc2S[C@H]1c1ccc(OC)cc1` has a melting point of 125 to 126 °C.
`COc1cc(-c2cnc(N[N+](=O)[O-])[nH]c2=O)ccn1` showed a melting point of 194 to 196 °C.
With `CC(=O)Nc1ccc(Oc2ccc(S(C)(=O)=O)cc2C)cc1` the melting point was 169 °C.
With `CCN(CC)C(=O)COc1nc2cc(OC)cc(OC)c2cc1-c1ccc(OC)cc1` the melting point was 146 to 147 °C.
For `Cn1nc(-c2ccc(Cl)cc2Cl)cc1O`, the melting point was 128 °C.
In the case of `O=C1CCC(N2C(=O)c3ccccc3C2=O)CC1`, the melting point is reported as 140 to 142 °C.
Work on `C=CCN(CC=C)C(=O)n1cnc(S(C)(=O)=O)n1` yielded a melting point of 52 to 54 °C.
With `CCCc1[nH]c2cc(C(=O)OC)ccc2c1C(=O)C1CCC1` the melting point was 159 to 160 °C.
`COc1ccc2c(n1)C1(CO2)C(=O)N(CC2CCCO2)c2cccc(Br)c21` (stereo unspecified) gave a melting point of 110 to 112 °C.
Compound `COc1cccc2c(=O)sc(C(=O)O)cc12` has a melting point of 283 to 284 °C.
In the case of `COCc1cc(C(C)(C)C)cc(C(C)(C)C)c1O`, the melting point is reported as 36 to 39 °C.
Compound `CCC(CC)C(NS(=O)(=O)c1ccc(Cl)s1)c1ncnn1Cc1ccc(C)cc1` (stereo unspecified) has a melting point of 103 to 104 °C.
In the case of `CCC(=O)NC/C=C1\CCc2ncc3c(c21)CCO3`, the melting point is reported as 163 to 164 °C.
`c1ccc(N2CCN(CCCc3cccnc3)CC2)nc1` showed a melting point of 51 to 52 °C.
Compound `O=C1CCOc2c1ccc1oc(Cl)cc21` has a melting point of 144 to 146 °C.
`CCOc1cc2c(cc1OCC)CCCC(C(=O)N1CCN(C(=O)c3cc(OC)c(OC)c(OC)c3)CC1)=C2` gave a melting point of 183 to 185 °C.
In the case of `CC(C)CC(=O)NCc1ccc(NC(=O)/C=C/c2cnn(C)c2-c2ccc(F)cc2)cc1`, the melting point is reported as 226 to 227 °C.
With `COc1cc(CCl)ccc1OCCCCOc1ccc(CCl)cc1OC` the melting point was 116 to 118 °C.
With `COc1ccc2c3c(oc2c1)CC(CC1CCN(Cc2ccccc2)CC1)C3=O` (stereo unspecified) the melting point was 137 to 138 °C.
For `CN(C)c1ccc(-c2cnc(N)c([N+](=O)[O-])c2)cc1`, the melting point was 212 °C.
For `CCCCC(O)Cc1c(O)c2cccnc2n(-c2ccccc2)c1=O` (stereo unspecified), the melting point was 184 to 186 °C.
With `COC(=O)C1=CC=C(/C=C/c2ccc(OC)cc2)C2=CC(C(C)C)=CC=C(C)C2=C1C(=O)OC` the melting point was 161 to 162 °C.
Work on `CS(=O)(=O)Nc1ccc(C(O)(C(F)(F)F)C(F)(F)F)cc1` yielded a melting point of 137 to 139 °C.
For `CCOC(=O)COc1ccc(C(=O)Nc2cccc(F)c2Sc2ccccc2-c2nnn[nH]2)cc1`, the melting point was 208 to 209 °C.
For `CC(C)c1c(C=C(Br)Br)c(-c2ccc(F)cc2)n2ccccc12`, the melting point was 118 to 120 °C.
For `O=C(O)c1cc(F)cc(-c2ccc(F)c3cc(Cc4cccc(C(F)(F)F)c4)sc23)c1`, the melting point was 169 to 170 °C.
`CC1C[C@@H]2[C@H](O1)[C@@H](NC(=O)OC(C)(C)C)CN2Cc1ccccc1` (relative stereo) showed a melting point of 56 to 60 °C.
For `NC(=O)c1nnn(Cc2ccc(S(=O)c3ccc(Cl)cc3)c(Cl)c2)c1N` (stereo unspecified), the melting point was 237 to 238 °C.
`CCc1c(-c2ccc(OC)cc2)c2cc(C(C)=O)c3cccc1n32` gave a melting point of 73 to 75 °C.
`Clc1cc2ccccc2c(N2CCSCC2)n1` gave a melting point of 133 °C.
Work on `Cc1c(Cl)cccc1S(=O)(=O)Nc1ccc2ncccc2c1` yielded a melting point of 228 °C.
`Oc1ccc2c(c1)CCCC(c1ccccc1)=C2c1ccc(OCCCCSCCCC(F)(F)C(F)(F)F)cc1` gave a melting point of 167 °C.
With `N#CCCc1cc(C(=O)O)cc(S(N)(=O)=O)c1Oc1ccccc1` the melting point was 259 to 262 °C.
In the case of `COC(=O)C1Cc2c([nH]c3ccccc23)C(c2ccccc2Br)N1` (stereo unspecified), the melting point is reported as 105 to 106 °C.
Compound `CC(C)(C(=O)OCC(=O)c1ccccc1)n1c(=O)[nH]c2cc3ccccc3cc2c1=O` has a melting point of 184 to 185 °C.
